Experimental data from PubChem BioAssay AID1963966 (Molecular Pharmacology Branch, DTP, NCI, 2024).

Test system: 935938-334-R-J1-PDC spheroids with HUVEC/MSC, viability
Test: Anticancer human tumor 935938-334-R-J1-PDC patient-derived small intestine adenocarcinoma cell line growth inhibition [PI3K]
Conditions: for IC50: curve of first compound; for viability, T/C: stronger effect = lower value
How it was run: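 Spheroid viability read-out. Co-cultures contained the tumor line plus HUVEC and human MSCs. Each agent was paired with a PI3K inhibitor (inavolisib, alpelisib, duvelisib, copanlisib) across half-log dilutions starting at clinical Cmax, or at 10 microM when Cmax was unknown.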

[1] = second compound 0.0316 µM, first compound 0.0316 µM
[2] = second compound 0.0316 µM, first compound 0.1 µM
[3] = second compound 0.0316 µM, first compound 0.316 µM
[4] = second compound 0.0316 µM, first compound 1 µM
[5] = second compound 0.0316 µM, first compound 3.16 µM
[6] = second compound 0.0316 µM, first compound 10 µM
[7] = second compound 0.1 µM, first compound 0.0316 µM
[8] = second compound 0.1 µM, first compound 0.1 µM
[9] = second compound 0.1 µM, first compound 0.316 µM
[10] = second compound 0.1 µM, first compound 1 µM
[11] = second compound 0.1 µM, first compound 3.16 µM
[12] = second compound 0.1 µM, first compound 10 µM
[13] = second compound 0.316 µM, first compound 0.0316 µM
[14] = second compound 0.316 µM, first compound 0.1 µM
[15] = second compound 0.316 µM, first compound 0.316 µM
[16] = second compound 0.316 µM, first compound 1 µM
[17] = second compound 0.316 µM, first compound 3.16 µM
[18] = second compound 0.316 µM, first compound 10 µM
[19] = second compound 1 µM, first compound 0.0316 µM
[20] = second compound 1 µM, first compound 0.1 µM
[21] = second compound 1 µM, first compound 0.316 µM
[22] = second compound 1 µM, first compound 1 µM
[23] = second compound 1 µM, first compound 3.16 µM
[24] = second compound 1 µM, first compound 10 µM
[25] = second compound 3.16 µM, first compound 0.0316 µM
[26] = second compound 3.16 µM, first compound 0.1 µM
[27] = second compound 3.16 µM, first compound 0.316 µM
[28] = second compound 3.16 µM, first compound 1 µM
[29] = second compound 3.16 µM, first compound 3.16 µM
[30] = second compound 3.16 µM, first compound 10 µM
[31] = second compound 10 µM, first compound 0.0316 µM
[32] = second compound 10 µM, first compound 0.1 µM
[33] = second compound 10 µM, first compound 0.316 µM
[34] = second compound 10 µM, first compound 1 µM
[35] = second compound 10 µM, first compound 3.16 µM
[36] = second compound 10 µM, first compound 10 µM
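Also: compound exposure lasted seven days before viability was read.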
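For viability, T/C in this document: percent of vehicle DMSO treated spheroid viability so 100% = untreated.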

Structure (SMILES): C#Cc1c(F)ccc2cc(O)cc(-c3ncc4c(N5CC6CCC(C5)N6)nc(OCC56CCCN5CC(F)C6)nc4c3F)c12 (centres undefined) + Cc1nc(NC(=O)N2CCCC2C(N)=O)sc1-c1ccnc(C(C)(C)C(F)(F)F)c1
- IC50 (second compound 0.0316 µM): 0.987 µM
- IC50 (second compound 0.1 µM): 1.87 µM
- IC50 (second compound 0.316 µM): 1.49 µM
- IC50 (second compound 1 µM): 0.528 µM
- IC50 (second compound 3.16 µM): 0.0489 µM
- IC50 (second compound 10 µM): < 0.0316 µM
- viability, T/C [1]: 101%
- viability, T/C [2]: 89.2%
- viability, T/C [3]: 107%
- viability, T/C [4]: 49.4%
- viability, T/C [5]: 36.8%
- viability, T/C [6]: 32.7%
- viability, T/C [7]: 88.8%
- viability, T/C [8]: 73.6%
- viability, T/C [9]: 79%
- viability, T/C [10]: 60%
- viability, T/C [11]: 40.7%
- viability, T/C [12]: 27.6%
- viability, T/C [13]: 94.4%
- viability, T/C [14]: 80%
- viability, T/C [15]: 77.3%
- viability, T/C [16]: 59.5%
- viability, T/C [17]: 33.4%
- viability, T/C [18]: 29.4%
- viability, T/C [19]: 76.5%
- viability, T/C [20]: 85.9%
- viability, T/C [21]: 60.4%
- viability, T/C [22]: 35.4%
- viability, T/C [23]: 29.3%
- viability, T/C [24]: 21.1%
- viability, T/C [25]: 51.5%
- viability, T/C [26]: 46.5%
- viability, T/C [27]: 40.7%
- viability, T/C [28]: 30.8%
- viability, T/C [29]: 25.7%
- viability, T/C [30]: 23.4%
- viability, T/C [31]: 47.8%
- viability, T/C [32]: 33.2%
- viability, T/C [33]: 36.8%
- viability, T/C [34]: 27.6%
- viability, T/C [35]: 17.3%
- viability, T/C [36]: 16%

Structure (SMILES): C=CC(=O)N1CCN(c2nc(=O)n(-c3c(C)ccnc3C(C)C)c3nc(-c4c(O)cccc4F)c(F)cc23)C(C)C1 (centres undefined) + Cc1nc(NC(=O)N2CCCC2C(N)=O)sc1-c1ccnc(C(C)(C)C(F)(F)F)c1
- IC50 (second compound 0.0316 µM): > 10 µM
- IC50 (second compound 0.1 µM): > 10 µM
- IC50 (second compound 0.316 µM): > 10 µM
- IC50 (second compound 1 µM): > 10 µM
- IC50 (second compound 3.16 µM): > 10 µM
- IC50 (second compound 10 µM): < 0.0316 µM
- viability, T/C [1]: 73%
- viability, T/C [2]: 92.1%
- viability, T/C [3]: 88%
- viability, T/C [4]: 98.7%
- viability, T/C [5]: 85.7%
- viability, T/C [6]: 86.8%
- viability, T/C [7]: 79.2%
- viability, T/C [8]: 76.2%
- viability, T/C [9]: 91.2%
- viability, T/C [10]: 60.7%
- viability, T/C [11]: 79.5%
- viability, T/C [12]: 95.8%
- viability, T/C [13]: 91%
- viability, T/C [14]: 96%
- viability, T/C [15]: 74.2%
- viability, T/C [16]: 69.5%
- viability, T/C [17]: 72.7%
- viability, T/C [18]: 92.3%
- viability, T/C [19]: 68.4%
- viability, T/C [20]: 64%
- viability, T/C [21]: 60.5%
- viability, T/C [22]: 68.7%
- viability, T/C [23]: 77.3%
- viability, T/C [24]: 47.4%
- viability, T/C [25]: 48.4%
- viability, T/C [26]: 55.1%
- viability, T/C [27]: 45.1%
- viability, T/C [28]: 57.1%
- viability, T/C [29]: 64.7%
- viability, T/C [30]: 42.5%
- viability, T/C [31]: 43.2%
- viability, T/C [32]: 40.1%
- viability, T/C [33]: 47.3%
- viability, T/C [34]: 36.5%
- viability, T/C [35]: 35%
- viability, T/C [36]: 32.2%
